From patent US10206900B2, “Treatments for fibrotic diseases” (MOR RESEARCH APPLICATIONS LTD., priority 2013, dated 2019)

Legend:
MMP-9 = MMP-9 activity by gelatin zymography in RPE cell supernatants; format: cell-based; settings: RPE cells, SB431542 10 μM pretreatment, TGF-β1 2.5 ng/ml, 24 hours
Protocol: FIGS. 2A-2C TAK1 regulates RPE cells EMT phenotype upon TGF-β stimulation. FIG. 2A: RPE cells were serum-starved for 16 hours, pretreated with 5Z-7-oxozeaenol (1 μM) or left untreated for 1 hour. The cells were then treated with TGF-β1 (2.5 ng/ml) as described herein for 24 h and immunostained with α-SMA antibodies (red) and DAPI (blue). Representative photographs of three independent experiments. The histogram in the bottom panel represents quantification of α-SMA antibody pixel intensity. FIG. 2B: RPE cells were serum-starved for 16 hours, then treated with mitomycin C (10 ng/ml) for 3 h. Thereafter, pretreated with 5Z-7-oxozeaenol (1 μM) or Dimethyl sulfoxide (DMSO) for 1 hour. Following this process a scratch was performed in the cell monolayer and the serum free medium was supplemented with TGF-β1 (2.5 ng/ml) or left unsupplemented. Scratches were photo-documented at the indicated times (top panel) and their width was measured using Image-J software. […] Bars are Mean±SD. FIG. 2C: RPE cells were serum-starved for 16 hours then pretreated with 5Z-7-oxozeaenol (1 μM) or SB431542 (10 μM), or DMSO for 1 hour. […] Total MMP-9 activities were processed by gelatin zymography (top panel) and the band intensity values were calculated by Quantity One® 1-D analysis software. […] Data is expressed as the Mean±SD.

RPE cells = experiment: Cell size / morphology (rhodamine-phalloidin staining) upon TGF-β1; format: cell-based; settings: 5Z-7-oxozeaenol 1 μM or SB431542 10 μM prior to TGF-β1
Protocol: FIG. 3A: RPE cells were plated on fibronectin-coated glass coverslips, serum-starved for 16 hours, pretreated with 5Z-7-oxozeaenol (1 μM) or SB431542 (10 μM), or DMSO for 1 hour, then treated with or without TGF-β1 for 2 days. Following treatment, the cells were stained with rhodamine-phalloidin (actin fibers-red) and DAPI (blue) and visualized by confocal microscopy. Scale bars: […]. FIG. 3B: Serum-starved RPE cells pretreated with 5Z-7-oxozeaenol (1 μM) or DMSO for 1 hour, and were exposed to TGF-β as in FIG. 3A. Total RNA was extracted at each time point and qPCR was performed. Transcription levels of CTGF were determined after 6 h, 16 h and 24 h. Bars represent the specific mRNA amount relative to GAPDH mRNA in the same samples. All experiments were performed in triplicates. A representative histogram from two independent experiments is shown. FIG. 3C: RPE cells were plated and treated as in FIG. 3A. Following treatment, the cells were immunostained with E-cadherin antibodies (green) and DAPI (blue). Representative photographs of two independent experiments are shown. In addition to the secretion of MMPs and increased migratory capacity, several morphological changes underlie EMT (Lamouille et al., I 2007, 178:437-451). […]

NC(=O)c1ccc(-c2nc(-c3ccc4c(c3)OCO4)c(-c3ccccn3)[nH]2)cc1 [SB431542]
activation of MMP-9 by TGF-β1 (MMP-9): completely abolished the activation of MMP-9 | TGF-β1-induced increase in cell size (hypertrophic RPE cells) (RPE cells): abolished the increase in cell size
